Assays:
[1] = tested on: MiaPaCa-2 pancreatic cancer cell line; experiment: [3H]-thymidine incorporation (DNA synthesis), MiaPaCa-2; assay type: cell-based
Procedure: (§1) Cell culture. The following pancreatic cancer cell lines were used: MiaPaCa-2 and PANC-1 (poorly-differentiated); Capan-1 and Capan-2 (well-differentiated); and HPAF and AsPC-1 (pleomorphic). These were purchased from American Type Culture Collection (Rockville, Md.). PANC-1 and MiaPaCa-2 were grown in DMEM media; HPAF and AsPC-1 were grown in MEM media; and Capan-1 and Capan-2 were grown in-McCoy's media. Media were supplemented with 10% FBS, and the cells were grown as monolayers in a humidified atmosphere of […] and 5% CO2 at 37° C. The cells were regularly seeded into 75 cm^2 flask with media changed every other day. For experiments, cells were grown to 80% confluence, digested with trypsin-EDTA, and plated either in 12 or 24-well plates at a concentration of 50,000/ml, as appropriate.
(§2) DNA synthesis by [^3H]-Thymidine incorporation. Cells were plated in 12 or 24-well plates. After reaching 70% confluence, they were incubated in serum-free media for 24 hours, which was then replaced with fresh serum-free media with or without the appropriate concentration of leukotriene B4 receptor antagonist LY293111 (62.5-1000 nM), LTB4 (100-400 nM), or both. After the appropriate period of culture, cellular DNA synthesis was assayed by adding 0.5 μCi/well of [^3H]-methyl-thymidine and incubating for another 2 hours. Then, the cells were washed twice with PBS, fixed with 10% trichloroacetic acid (“TCA”) for 30 minutes, and solubilized by adding 0.4 M NaOH to each well. Radioactivity, indicating incorporation of ^3H-thymidine into DNA, was measured by adding a scintillation cocktail and counting on a scintillation counter (LKB RackBeta, Wallac, Turku, Finland)

[2] = tested on: AsPC-1 pancreatic cancer cell line; experiment: [3H]-thymidine incorporation (DNA synthesis), AsPC-1; assay type: cell-based, human; conditions: mean±SEM; for proliferation (thymidine incorporation), % control: 24 hours
Procedure: as §1, §2

MiaPaCa-2 cells = experiment: DNA fragmentation assay (agarose gel), MiaPaCa-2; assay type: cell-based; conditions: MiaPaCa-2, 250, 500 and 1000 nM for 48 hours; no ladder in control cells
Procedure: DNA fragmentation assay. For analysis of DNA fragmentation by agarose gel electrophoresis, treated pancreatic cancer cells were detached from 75 cm^2 flask with trypsin-EDTA, washed twice with PBS, resuspended in 1 ml lysis buffer (25 mM EDTA, 10 mM Tris, 0.5% Triton X-100, and 1% SDS), and freeze-thawed at −80° C. overnight. Then, an equal volume of PEG/NaCl stock solution was added to the lysates to give a final concentration of 0.25% PEG and 1 M NaCl, and the tubes were centrifuged at 13,200 g at 4° C. for 30 minutes. The supernatants containing fragmented small molecular weight DNA were then incubated with RNAse A (0.3 mg/ml) at 37° C. for one hour and then with […] proteinase K (10 mg/ml) for three hours. Samples were then extracted with phenol-chloroform and precipitated with 70% ethanol overnight. The pellets containing DNA were then resuspended in […] of TE buffer, subjected to electrophoresis on a 1.8% agarose gel containing ethidium bromide ([…]), visualized by UV illumination, and analyzed using a Molecular Analyst Gel Documentation system (Bio-rad Laboratories, Hercules, Calif.).

[3] = tested on: Capan-2 pancreatic cancer cell line; experiment: [3H]-thymidine incorporation (DNA synthesis), Capan-2; assay type: cell-based; conditions: mean±SEM; for proliferation (thymidine incorporation), % control: 24 hours
Procedure: as §1, §2

CCCc1c(OCCCOc2cc(O)c(-c3ccc(F)cc3)cc2CC)cccc1Oc1ccccc1C(=O)O [LY293111, 2-(2-propyl-3-(3-(2-ethyl-4-(4-fluorophenyl)-5-hydroxyphenoxy)propoxy)-phenoxy)benzoic acid]
decrease of proliferation ([1]; MiaPaCa-2 (FIG. 6A), LY293111 250 nM, 24 hours): 50%
proliferation with combination of LTB4 and LY293111 ([1]; MiaPaCa-2, 250 nM LY293111 + 100 nM LTB4, 24 hours): restored to almost the control level
effect on thymidine incorporation ([1]; MiaPaCa-2, concentration-dependent (FIG. 1A, P<0.0001) and time-dependent (FIG. 1B, P<0.0001)): inhibition of thymidine incorporation
proliferation (thymidine incorporation), % control ([2]; AsPC-1, LY293111 62.5 nM): 90.6 ± 4.6 % control
proliferation (thymidine incorporation), % control ([2]; AsPC-1, LY293111 125 nM): 72.8 ± 5.4 % control
proliferation (thymidine incorporation), % control ([2]; AsPC-1, LY293111 250 nM): 44.5 ± 7.7 % control
proliferation, % control (time course) ([2]; AsPC-1, LY293111 500 nM, 6 h): 65.8 ± 7.7 % control
proliferation, % control (time course) ([2]; AsPC-1, LY293111 500 nM, 12 h): 44.7 ± 4.1 % control
proliferation, % control (time course) ([2]; AsPC-1, LY293111 500 nM, 24 h): 16.7 ± 2.1 % control
proliferation (thymidine incorporation), % control ([2]; AsPC-1, LY293111 500 nM): 18.4 ± 6.9 % control
proliferation (thymidine incorporation), % control ([2]; AsPC-1, LY293111 1000 nM): 7.3 ± 1.2 % control
DNA fragmentation (apoptosis) (MiaPaCa-2 cells): distinctive DNA ladder
proliferation (thymidine incorporation), % control ([3]; Capan-2, LY293111 62.5 nM): 95.4 ± 8.7 % control
proliferation (thymidine incorporation), % control ([3]; Capan-2, LY293111 125 nM): 67.3 ± 6.8 % control
proliferation (thymidine incorporation), % control ([3]; Capan-2, LY293111 250 nM): 51.2 ± 5.8 % control
proliferation, % control (time course) ([3]; Capan-2, LY293111 500 nM, 6 h): 57.8 ± 4.3 % control
proliferation, % control (time course) ([3]; Capan-2, LY293111 500 nM, 12 h): 32.1 ± 5.6 % control
proliferation, % control (time course) ([3]; Capan-2, LY293111 500 nM, 24 h): 10.9 ± 6.0 % control
proliferation (thymidine incorporation), % control ([3]; Capan-2, LY293111 500 nM): 15.8 ± 9.6 % control
proliferation (thymidine incorporation), % control ([3]; Capan-2, LY293111 1000 nM): 8.9 ± 2.1 % control

— patent publication US20040053962A1, “Methods for inhibiting proliferation and inducing apoptosis in cancer cells” (priority 2003, published 2004)
